Several values for one entry are separate records, joined by “and”; a condition that tells them apart may be missing. Equal entries are not always repeated.
Tests used:
CD73 [1] = target: T1, CD73 (Homo sapiens (Human), UniProt P21589); experiment: CD73 Biochemical IC50 Assay; conditions: CD73 0.3 nM, AMP 15 uM, 25 mM Tris pH 7.4, 5 mM MgCl2
Method: CD73 Biochemical IC50 Assay
Compound serial dilutions were pre-spotted into Thermo Nunc assay plate. 50 μL CD73 enzyme buffer (CD73 purchased from R&D system=0.6 nM, 25 mM Tris, pH 7.4, 5 mM MgCl2) was added into the assay plate and incubated for 15 mins. […] The samples were run using Rapid fire.

CD73 [2] = target: T1, CD73; experiment: MDA-MB-231 Cell Based CD73 Activity Assay; conditions: MDA-MB-231-GFP cells, RPMI medium with 10% human plasma, 200 uM AMP
Method: MDA-MB-231 Cell Based CD73 Activity Assay
MDA-MB-231-GFP cells were seeded in 384-well plates (Greiner 781946) at a density of 10000 cells per well in 50 μL of RPMI medium with 10% HP (human plasma). Cells were plated into assay plate with compounds pre-spotted, for an overnight compound treatment. 50 μL of 400 μM AMP (final concentration 200 μM) using a Bio-tek dispenser. Plates were incubated for 100 mins. […] The samples were run using Rapid fire.

T1 sequence (P21589 27-574): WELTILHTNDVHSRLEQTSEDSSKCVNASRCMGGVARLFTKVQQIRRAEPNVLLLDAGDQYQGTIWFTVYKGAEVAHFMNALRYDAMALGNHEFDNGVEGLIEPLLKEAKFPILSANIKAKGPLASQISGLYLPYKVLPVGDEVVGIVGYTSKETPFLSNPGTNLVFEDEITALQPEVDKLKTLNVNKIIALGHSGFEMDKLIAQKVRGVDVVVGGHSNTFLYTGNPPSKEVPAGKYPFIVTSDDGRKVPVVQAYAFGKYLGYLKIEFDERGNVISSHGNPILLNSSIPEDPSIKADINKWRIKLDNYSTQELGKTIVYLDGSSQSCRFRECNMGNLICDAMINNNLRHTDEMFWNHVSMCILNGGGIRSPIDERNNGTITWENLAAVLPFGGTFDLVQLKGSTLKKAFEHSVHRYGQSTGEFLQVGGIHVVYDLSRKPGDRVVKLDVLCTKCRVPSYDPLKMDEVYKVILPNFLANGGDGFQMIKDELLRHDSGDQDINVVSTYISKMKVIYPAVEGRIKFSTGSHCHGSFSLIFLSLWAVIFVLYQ

Row | SMILES | IC50 (CD73 [1]) | EC50 (CD73 [2])
1 | O=c1[nH]cc(-c2cc([C@H]3CC34CCC4)c3nccn3n2)c(=O)[nH]1 (racemic) [Example 5, (S)-5-(8-(spiro[2.3]hexan-1-yl)imidazo[1,2-b]pyridazin-6-yl)pyrimidine-2,4(1H,3H)-dione and (R)-5-(8-(spiro[2.3]hexan-1-yl)imidazo[1,2-b]pyridazin-6-yl)pyrimidine-2,4(1H,3H)-dione] | 1550 nM and 2500 nM | 2020 nM and 2530 nM
2 | CC(C)(C)[C@H]1C[C@@H]1c1cc(-c2c[nH]c(=O)[nH]c2=O)nn2ccnc12 (racemic) [Example 6, 5-(8-((1S,2S)-2-(tert-butyl)cyclopropyl)imidazo[1,2-b]pyridazin-6-yl)pyrimidine-2,4-(1H,3H)-dione and 5-(8-((1R,2R)-2-(tert-butyl)cyclopropyl)imidazo[1,2-b]pyridazin-6-yl)pyrimidine-2,4-(1H,3H)-dione] | 164 nM | 184 nM
3 | O=c1[nH]cc(-c2cc([C@H]3C[C@@H]3C3CC3)c3nccn3n2)c(=O)[nH]1 (racemic) [Example 8, 5-(8-((1R,2S)-[1,1′-bi(cyclopropan)]-2-yl)imidazo[1,2-b]pyridazin-6-yl)pyrimidine-2,4(1H,3H)-dione and 5-(8-((1S,2R)-[1,1′-bi(cyclopropan)]-2-yl)imidazo[1,2-b]pyridazin-6-yl)pyrimidine-2,4(1H,3H)-dione] | 29 nM and 45.8 nM | 36.1 nM and 47.2 nM
4 | O=c1[nH]cc(-c2cc([C@H]3C[C@@H]3c3cccc(C(F)(F)F)c3)c3nccn3n2)c(=O)[nH]1 (racemic) [Example 41, 5-[8-[(1S,2S)-2-[3-(trifluoromethyl)phenyl]cyclopropyl]imidazo[1,2-b]pyridazin-6-yl]-1H-pyrimidine-2,4-dione and 5-[8-[(1R,2R)-2-[3-(trifluoromethyl)phenyl]cyclopropyl]imidazo[1,2-b]pyridazin-6-yl]-1H-pyrimidine-2,4-dione] | 61.6 nM | 18.6 nM
5 | O=c1[nH]cc(-c2cc([C@H]3C[C@@H]3c3ccc(C4CC4)cc3)c3nccn3n2)c(=O)[nH]1 (racemic) [Example 45, 5-(8-((1S,2S)-2-(4-cyclopropylphenyl)cyclopropyl)imidazo[1,2-b]pyridazin-6-yl)pyrimidine-2,4(1H,3H)-dione and 5-(8-((1R,2R)-2-(4-cyclopropylphenyl)cyclopropyl)imidazo[1,2-b]pyridazin-6-yl)pyrimidine-2,4(1H,3H)-dione] | 32.6 nM | 6.59 nM
6 | O=c1[nH]cc(-c2cc([C@H]3C[C@@H]3c3cccc(OC(F)(F)F)c3)c3nccn3n2)c(=O)[nH]1 (racemic) [Example 47, 5-(8-((1S,2S)-2-(3-(trifluoromethoxy)phenyl)cyclopropyl)imidazo[1,2-b]pyridazin-6-yl) pyrimidine-2,4(1H,3H)-dione and 5-(8-((1R,2R)-2-(3-(trifluoromethoxy)phenyl)cyclopropyl)imidazo[1,2-b]pyridazin-6-yl) pyrimidine-2,4(1H,3H)-dione] | 47.2 nM | 13.7 nM
7 | O=c1[nH]cc(-c2cc([C@H]3C[C@@H]3c3cc(F)cc(F)c3)c3nccn3n2)c(=O)[nH]1 (racemic) [Example 60, 5-(8-((1S,2S)-2-(3,5-difluorophenyl)cyclopropyl)imidazo[1,2-b]pyridazin-6-yl)pyrimidine-2,4(1H,3H)-dione and 5-(8-((1R,2R)-2-(3,5-difluorophenyl)cyclopropyl)imidazo[1,2-b]pyridazin-6-yl)pyrimidine-2,4(1H,3H)-dione] | 12.6 nM | 6.43 nM
8 | O=c1[nH]cc(-c2cc([C@H]3C[C@@H]3c3cc(F)ccc3F)c3nccn3n2)c(=O)[nH]1 (racemic) [Example 65, 5-(8-((1S,2S)-2-(2,5-difluorophenyl)cyclopropyl)imidazo[1,2-b]pyridazin-6-yl)pyrimidine-2,4(1H,3H)-dione and 5-(8-((1R,2R)-2-(2,5-difluorophenyl)cyclopropyl)imidazo[1,2-b]pyridazin-6-yl)pyrimidine-2,4(1H,3H)-dione] | 13.2 nM | 6.71 nM
9 | O=c1[nH]cc(-c2cc([C@H]3C[C@@H]3c3cccc4ccccc34)c3nccn3n2)c(=O)[nH]1 (racemic) [Example 74, 5-[8-[(1S,2S)-2-(1-naphthyl)cyclopropyl]imidazo[1,2-b]pyridazin-6-yl]-1H-pyrimidine-2,4-dione and 5-[8-[(1R,2R)-2-(1-naphthyl)cyclopropyl]imidazo[1,2-b]pyridazin-6-yl]-1H-pyrimidine-2,4-dione] | 170 nM | 540 nM
10 | O=c1[nH]cc(-c2cc(N3CCC(c4ccc(F)cc4)C3)c3nccn3n2)c(=O)[nH]1 (stereo in doubt) [Example 68, 5-[8-[(3S)-3-(4-fluorophenyl)pyrrolidin-1-yl]imidazo[1,2-b]pyridazin-6-yl]-1H-pyrimidine-2,4-dione] | 69.5 nM | 67.5 nM

Results, then the compound that gave them:

Row | IC50 (CD73 [1]) | EC50 (CD73 [2]) | SMILES
11 | 26.5 nM | 2.48 nM | O=c1[nH]cc(-c2cc([C@H]3C[C@@H]3c3ccc(F)cc3)c3ncc(F)n3n2)c(=O)[nH]1 (racemic) [Example 76, 5-[3-fluoro-8-[(1S,2S)-2-(4-fluorophenyl)cyclopropyl]imidazo[1,2-b]pyridazin-6-yl]-1H-pyrimidine-2,4-dione and 5-[3-fluoro-8-[(1R,2R)-2-(4-fluorophenyl)cyclopropyl]imidazo[1,2-b]pyridazin-6-yl]-1H-pyrimidine-2,4-dione]
12 | 49.5 nM | 39.1 nM | O=c1[nH]cc(-c2cc([C@H]3C[C@@H]3c3ccc(F)c(C(F)(F)F)c3)c3nccn3n2)c(=O)[nH]1 (racemic) [Example 95, 5-(8-((1S,2S)-2-(4-fluoro-3-(trifluoromethyl)phenyl)cyclopropyl)imidazo[1,2-b]pyridazin-6-yl)pyrimidine-2,4(1H,3H)-dione and 5-(8-((1R,2R)-2-(4-fluoro-3-(trifluoromethyl)phenyl)cyclopropyl)imidazo[1,2-b]pyridazin-6-yl)pyrimidine-2,4(1H,3H)-dione]
13 | 19.3 nM | 6.05 nM | O=c1[nH]cc(-c2cc([C@H]3C[C@@H]3c3ccc(F)c(Cl)c3)c3nccn3n2)c(=O)[nH]1 (racemic) [Example 99, 5-(8-((1S,2S)-2-(3-chloro-4-fluorophenyl)cyclopropyl)imidazo[1,2-b]pyridazin-6-yl)pyrimidine-2,4(1H,3H)-dione and 5-(8-((1R,2R)-2-(3-chloro-4-fluorophenyl)cyclopropyl)imidazo[1,2-b]pyridazin-6-yl)pyrimidine-2,4(1H,3H)-dione]
14 | 285 nM | 38.5 nM | O=c1[nH]cc(-c2cc([C@H]3C[C@@H]3Cc3ccccc3)c3nccn3n2)c(=O)[nH]1 (racemic) [Example 105, 5-(8-((1S,2R)-2-benzylcyclopropyl)imidazo[1,2-b]pyridazin-6-yl)pyrimidine-2,4(1H,3H)-dione and 5-(8-((1R,2S)-2-benzylcyclopropyl)imidazo[1,2-b]pyridazin-6-yl)pyrimidine-2,4(1H,3H)-dione]
15 | 205 nM | 71.5 nM | N#Cc1ccc(C[C@H]2C[C@@H]2c2cc(-c3c[nH]c(=O)[nH]c3=O)nn3ccnc23)cc1 (racemic) [Example 111, 4-(41R,2S)-2-(6-(2,4-dioxo-1,2,3,4-tetrahydropyrimidin-5-yl)imidazo[1,2-b]pyridazin-8-yl)cyclopropyl)methyl)benzonitrile and 4-(((1S,2R)-2-(6-(2,4-dioxo-1,2,3,4-tetrahydropyrimidin-5-yl)imidazo[1,2-b]pyridazin-8-yl)cyclopropyl)methyl)benzonitrile]
